# Reference: patent publication US8906929B2, “Inhibitors of human immunodeficiency virus replication” (priority 2012, dated 2014)
# Tested on: recombinant NL-Rluc virus
# Test: Inhibition of HIV replication (NL-RLuc virus in MT-2 cells, luciferase readout)
# Type: cell-based
# Conditions: Human immunodeficiency virus 1, MT2, 120 h, 5 days of incubation, 10% FBS
structure (smiles),measurement,value
"Cc1cc2c(cc1C)-c1cccc(c1)-c1cc3nc(C)c([C@H](OC(C)(C)C)C(=O)O)c(n3n1)N1CCC(C)(CC1)OCC=CC[C@H](C)O2 [Example 75, (2S)-2-(tert-Butoxy)-2-[(22S)-4,17,18,22,28-pentamethyl-21,27-dioxa-1,5,7,8-tetraazahexacyclo[26.2.2.1^6,^9.1^10,^14.0^2,^7.0^15,^20]tetratriaconta-2,4,6(34),8,10(33), 11, 13, 15 (20),16,18,24-undecaen-3-yl]acetic acid]",EC50,34 nM
"Cc1cc2c(cc1C)-c1cccc(c1)-c1cc3nc(C)c([C@H](OC(C)(C)C)C(=O)O)c(n3n1)N1CCC(C)(CC1)OCCCC[C@H](C)O2 [Example 76, (2S)-2-(tert-Butoxy)-2-[(22S)-4,17,18,22,28-pentamethyl-21,27-dioxa-1,5,7,8-tetraazahexacyclo[26.2.2.1^6,^9.1^10,^14.0^2,^7.0^15,^20]tetratriaconta-2,4,6(34),8,10(33),11,13,15(20),16,18-decaen-3-yl]acetic acid]",EC50,29 nM
"Cc1cccc2c1-c1cccc(c1)-c1cc3nc(C)c([C@H](OC(C)(C)C)C(=O)O)c(n3n1)N1CCC(C)(CC1)OCCCC[C@H](C)O2 [Example 77, (2S)-2-(tert-Butoxy)-2-[(22S)-4,16,22,28-tetramethyl-21,27-dioxa-1,5,7,8-tetraazahexacyclo[26.2.2.1^6,^9.1^10,^14.0^2,^7.0^15,^20]tetratriaconta-2,4,6(34),8,10(33), 11, 13, 15(20),16,18-decaen-3-yl]acetic acid]",EC50,21 nM
"Cc1cc2c(cc1F)O[C@@H](C)CC=CCOC1(C)CCN(CC1)c1c([C@H](OC(C)(C)C)C(=O)O)c(C)nc3cc(nn13)-c1cccc-2c1 [Example 78, (2S)-2-(tert-Butoxy)-2-[(22S)-18-fluoro-4,17,22,28-tetramethyl-21,27-dioxa-1,5,7,8-tetraazahexacyclo[26.2.2.1^6,^9.1^10,^14.0^2,^7.0^15,^20]tetratriaconta-2,4,6(34),8,10(33),11,13, 15(20), 16,18,24-undecaen-3-yl]acetic acid]",EC50,31 nM
"Cc1cc2c(cc1F)O[C@@H](C)CCCCOC1(C)CCN(CC1)c1c([C@H](OC(C)(C)C)C(=O)O)c(C)nc3cc(nn13)-c1cccc-2c1 [Example 79, (2S)-2-(tert-Butoxy)-2-[(22S)-18-fluoro-4,17,22,28-tetramethyl-21,27-dioxa-1,5,7,8-tetraazahexacyclo[26.2.2.1^6,^9.1^10,^14.0^2,^7.0^15,^20]tetratriaconta-2,4,6(34),8,10(33),11,13,15(20),16,18-decaen-3-yl]acetic acid]",EC50,38 nM
"Cc1nc2cc3nn2c(c1[C@H](OC(C)(C)C)C(=O)O)N1CCC(C)(CC1)OCCCC[C@H](C)Oc1ccc(F)cc1-c1cccc-3c1 [Example 81, (2S)-2-(tert-Butoxy)-2-[(22S)-17-fluoro-4,22,28-trimethyl-21,27-dioxa-1,5,7,8-tetraazahexacyclo[26.2.2.1^6,^9.1^10,^14.0^2,^7.0^15,^20]tetratriaconta-2,4,6(34),8,10(33),11,13, 15(20),16,18-decaen-3-yl]acetic acid]",EC50,13 nM
"Cc1nc2cc3nn2c(c1[C@H](OC(C)(C)C)C(=O)O)N1CCC(C)(CC1)OCCCC[C@H](C)Oc1ccc(Cl)cc1-c1cccc-3c1 [Example 82, (2S)-2-(tert-Butoxy)-2-[(22S)-17-chloro-4,22,28-trimethyl-21,27-dioxa-1,5,7,8-tetraazahexacyclo[26.2.2.1^6,^9.1^10,^14.0^2,^7.0^15,^20]tetratriaconta-2,4,6(34),8,10(33), 11, 13, 15 (20),16,18-decaen-3-yl]acetic acid]",EC50,20 nM
"Cc1nc2cc3nn2c(c1[C@H](OC(C)(C)C)C(=O)O)N1CCC(C)(CC1)OCCCC[C@H](C)Oc1cc(F)ccc1-c1cccc-3c1 [Example 83, (2S)-2-(tert-Butoxy)-2-[(22S)-18-fluoro-4,22,28-trimethyl-21,27-dioxa-1,5,7,8-tetraazahexacyclo[26.2.2.1^6,^9.1^10,^14.0^2,^7.0^15,^20]tetratriaconta-2,4, 6(34), 8, 10(33), 11, 13, 15(20),16,18-decaen-3-yl]acetic acid]",EC50,25 nM
"Cc1nc2cc3nn2c(c1[C@H](OC(C)(C)C)C(=O)O)N1CCC(C)(CC1)OCCCC[C@H](C)Oc1cccc(F)c1-c1cccc-3c1 [Example 84, (2S)-2-(tert-Butoxy)-2-[(22S)-16-fluoro-4,22,28-trimethyl-21,27-dioxa-1,5,7,8-tetraazahexacyclo[26.2.2.1^6,^9.1^10,^14.0^2,^7.0^15,^20]tetratriaconta-2,4,6(34),8,10(33),11,13,15(20),16,18-decaen-3-yl]acetic acid]",EC50,12 nM
"Cc1nc2cc3nn2c(c1[C@H](OC(C)(C)C)C(=O)O)N1CCC(C)(CC1)OCCCC[C@H](C)Oc1cccc(Cl)c1-c1cccc-3c1 [Example 85, (2S)-2-(tert-Butoxy)-2-[(22S)-16-chloro-4,22,28-trimethyl-21,27-dioxa-1,5,7,8-tetraazahexacyclo[26.2.2.1^6,^9.1^10,^14.0^2,^7.0^15,^20]tetratriaconta-2,4, 6(34), 8, 10(33), 11, 13, 15 (20),16,18-decaen-3-yl]acetic acid]",EC50,21 nM
"Cc1nc2cc3nn2c(c1[C@H](OC(C)(C)C)C(=O)O)N1CCC(C)(CC1)OCCCC[C@H](C)Oc1cc(Cl)ccc1-c1cccc-3c1 [Example 86, (2S)-2-(tert-Butoxy)-2-[(22S)-18-chloro-4,22,28-trimethyl-21,27-dioxa-1,5,7,8-tetraazahexacyclo[26.2.2.1^6,^9. 1^10,^14.0^2,^7.0^15,^20]tetratriaconta-2,4,6(34),8,10(33), 11, 13, 15 (20),16,18-decaen-3-yl]acetic acid]",EC50,52 nM
"Cc1nc2cc3nn2c(c1[C@H](OC(C)(C)C)C(=O)O)N1CCC(C)(CC1)OCCCC[C@H](C)Oc1cc(C#N)ccc1-c1cccc-3c1 [Example 87, (2S)-2-(tert-Butoxy)-2-[(22S)-18-cyano-4,22,28-trimethyl-21,27-dioxa-1,5,7,8-tetraazahexacyclo[26.2.2.1^6,^9.1^10,^14.0^2,^7.0^15,^20]tetratriaconta-2,4,6(34),8,10(33), 11, 13, 15 (20),16,18-decaen-3-yl]acetic acid]",EC50,9 nM
"Cc1cc2c(cc1Cl)-c1cccc(c1)-c1cc3nc(C)c([C@H](OC(C)(C)C)C(=O)O)c(n3n1)N1CCC(C)(CC1)OCCCC[C@H](C)O2 [Example 88, (2S)-2-(tert-Butoxy)-2-[(22S)-17-chloro-4,18,22,28-tetramethyl-21,27-dioxa-1,5,7,8-tetraazahexacyclo[26.2.2.1^6,^9.1^10,^14.0^2,^7.0^15,^20]tetratriaconta-2,4, 6(34), 8, 10(33), 11, 13, 15 (20),16,18-decaen-3-yl]acetic acid]",EC50,86 nM
"Cc1nc2cc3nn2c(c1[C@H](OC(C)(C)C)C(=O)O)N1CCC(C)(CC1)OCCCC[C@H](C)Oc1ccc(Cl)c(C)c1-c1cccc-3c1 [Example 89, (2S)-2-(tert-Butoxy)-2-[(22S)-17-chloro-4,16,22,28-tetramethyl-21,27-dioxa-1,5,7,8-tetraazahexacyclo[26.2.2.1^6,^9.1^10,^14.0^2,^7.0^15,^20]tetratriaconta-2,4, 6(34), 8, 10(33), 11, 13, 15(20),16,18-decaen-3-yl]acetic acid]",EC50,110 nM
